Measured values from ChEMBL document CHEMBL1146979, “Structure-activity relationship of thiopyrimidines as mGluR5 antagonists” (Bioorg Med Chem Lett, 2006).
Blank lines part the entries; values can stand above or below the compound they belong to.

Experiments:
[1] = biological target: Metabotropic glutamate receptor 5 (Homo sapiens, UniProt P41594); assay: Inhibition of glutamate-induced calcium influx in human mGluR5d by FLIPR; assay type: functional
[2] = biological target: Metabotropic glutamate receptor 3 (Homo sapiens) (UniProt Q14832); assay: Activity against mGluR3
[3] = biological target: Metabotropic glutamate receptor 4 (Homo sapiens) (UniProt Q14833); assay: Activity against mGluR4
[4] = biological target: Metabotropic glutamate receptor 7 (Homo sapiens) (UniProt Q14831); assay: Activity against mGluR7
[5] = biological target: Metabotropic glutamate receptor 6 (Homo sapiens) (UniProt O15303); assay: Activity against mGluR6
[6] = Clearance in human liver microsomes; assay type: ADME, Microsome
[7] = biological target: Metabotropic glutamate receptor 1 (Homo sapiens) (UniProt Q13255); assay: Activity against mGluR1
[8] = Clearance in rat liver microsomes; assay type: ADME, Microsome
[9] = biological target: Metabotropic glutamate receptor 8 (Homo sapiens) (UniProt O00222); assay: Activity against mGluR8
[10] = biological target: Metabotropic glutamate receptor 2 (Homo sapiens) (UniProt Q14416); assay: Activity against mGluR2
Chain of Metabotropic glutamate receptor 2 (Homo sapiens) (Q14416 19-872 limits assumed): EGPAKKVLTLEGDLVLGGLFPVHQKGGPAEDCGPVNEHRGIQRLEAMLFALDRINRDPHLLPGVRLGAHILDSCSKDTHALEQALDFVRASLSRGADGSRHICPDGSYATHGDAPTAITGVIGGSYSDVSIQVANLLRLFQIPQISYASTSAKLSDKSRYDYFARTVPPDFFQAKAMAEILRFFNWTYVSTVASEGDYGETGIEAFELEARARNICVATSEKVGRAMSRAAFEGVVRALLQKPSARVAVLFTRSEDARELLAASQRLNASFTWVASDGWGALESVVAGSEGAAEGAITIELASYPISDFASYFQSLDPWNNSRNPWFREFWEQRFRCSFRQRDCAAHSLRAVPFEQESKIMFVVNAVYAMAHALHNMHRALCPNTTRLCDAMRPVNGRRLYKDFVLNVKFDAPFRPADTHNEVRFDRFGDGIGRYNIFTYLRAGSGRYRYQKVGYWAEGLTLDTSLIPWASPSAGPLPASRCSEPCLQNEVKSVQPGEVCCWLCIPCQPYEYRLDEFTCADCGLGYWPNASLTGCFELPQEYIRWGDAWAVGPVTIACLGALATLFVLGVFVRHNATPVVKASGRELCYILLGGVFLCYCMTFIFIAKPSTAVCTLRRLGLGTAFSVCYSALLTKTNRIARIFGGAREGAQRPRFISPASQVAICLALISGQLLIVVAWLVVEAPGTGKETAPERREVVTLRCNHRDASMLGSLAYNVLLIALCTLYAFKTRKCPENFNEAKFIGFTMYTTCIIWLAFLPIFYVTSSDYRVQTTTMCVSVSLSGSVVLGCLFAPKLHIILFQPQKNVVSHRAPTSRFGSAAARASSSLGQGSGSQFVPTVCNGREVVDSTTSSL

Chain of Metabotropic glutamate receptor 5 (P41594 whole entry): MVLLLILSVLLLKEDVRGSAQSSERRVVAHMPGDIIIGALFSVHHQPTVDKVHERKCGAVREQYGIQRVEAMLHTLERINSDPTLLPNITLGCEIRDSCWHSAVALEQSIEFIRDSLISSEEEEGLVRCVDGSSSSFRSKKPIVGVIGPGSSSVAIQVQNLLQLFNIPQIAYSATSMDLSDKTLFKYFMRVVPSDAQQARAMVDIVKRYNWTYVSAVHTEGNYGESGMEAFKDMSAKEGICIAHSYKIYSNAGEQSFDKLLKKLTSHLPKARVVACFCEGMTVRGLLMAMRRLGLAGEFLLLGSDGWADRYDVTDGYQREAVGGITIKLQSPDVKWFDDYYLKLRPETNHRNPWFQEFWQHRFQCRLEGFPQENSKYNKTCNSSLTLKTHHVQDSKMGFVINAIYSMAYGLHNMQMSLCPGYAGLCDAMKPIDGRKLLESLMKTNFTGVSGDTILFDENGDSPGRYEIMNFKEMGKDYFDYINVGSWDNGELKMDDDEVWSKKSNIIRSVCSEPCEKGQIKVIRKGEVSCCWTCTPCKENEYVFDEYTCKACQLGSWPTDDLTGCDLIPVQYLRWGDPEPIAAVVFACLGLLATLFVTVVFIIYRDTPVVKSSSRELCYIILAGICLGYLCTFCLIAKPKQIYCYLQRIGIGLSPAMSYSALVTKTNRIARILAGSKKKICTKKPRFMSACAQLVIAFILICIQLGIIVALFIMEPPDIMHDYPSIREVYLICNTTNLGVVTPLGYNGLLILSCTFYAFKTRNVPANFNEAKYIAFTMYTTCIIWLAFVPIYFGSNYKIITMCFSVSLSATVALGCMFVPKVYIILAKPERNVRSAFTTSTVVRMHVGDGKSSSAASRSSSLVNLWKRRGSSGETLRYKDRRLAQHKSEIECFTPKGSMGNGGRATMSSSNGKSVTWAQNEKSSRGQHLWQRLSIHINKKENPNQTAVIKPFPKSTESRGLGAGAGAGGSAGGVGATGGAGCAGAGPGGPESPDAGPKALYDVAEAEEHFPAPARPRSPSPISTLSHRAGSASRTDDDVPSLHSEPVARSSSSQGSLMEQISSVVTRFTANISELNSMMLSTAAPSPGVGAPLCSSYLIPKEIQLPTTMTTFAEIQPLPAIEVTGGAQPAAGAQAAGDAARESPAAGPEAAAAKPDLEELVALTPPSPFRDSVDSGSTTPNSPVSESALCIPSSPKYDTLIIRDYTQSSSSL
Chain of Metabotropic glutamate receptor 7 (Homo sapiens) (Q14831 whole entry): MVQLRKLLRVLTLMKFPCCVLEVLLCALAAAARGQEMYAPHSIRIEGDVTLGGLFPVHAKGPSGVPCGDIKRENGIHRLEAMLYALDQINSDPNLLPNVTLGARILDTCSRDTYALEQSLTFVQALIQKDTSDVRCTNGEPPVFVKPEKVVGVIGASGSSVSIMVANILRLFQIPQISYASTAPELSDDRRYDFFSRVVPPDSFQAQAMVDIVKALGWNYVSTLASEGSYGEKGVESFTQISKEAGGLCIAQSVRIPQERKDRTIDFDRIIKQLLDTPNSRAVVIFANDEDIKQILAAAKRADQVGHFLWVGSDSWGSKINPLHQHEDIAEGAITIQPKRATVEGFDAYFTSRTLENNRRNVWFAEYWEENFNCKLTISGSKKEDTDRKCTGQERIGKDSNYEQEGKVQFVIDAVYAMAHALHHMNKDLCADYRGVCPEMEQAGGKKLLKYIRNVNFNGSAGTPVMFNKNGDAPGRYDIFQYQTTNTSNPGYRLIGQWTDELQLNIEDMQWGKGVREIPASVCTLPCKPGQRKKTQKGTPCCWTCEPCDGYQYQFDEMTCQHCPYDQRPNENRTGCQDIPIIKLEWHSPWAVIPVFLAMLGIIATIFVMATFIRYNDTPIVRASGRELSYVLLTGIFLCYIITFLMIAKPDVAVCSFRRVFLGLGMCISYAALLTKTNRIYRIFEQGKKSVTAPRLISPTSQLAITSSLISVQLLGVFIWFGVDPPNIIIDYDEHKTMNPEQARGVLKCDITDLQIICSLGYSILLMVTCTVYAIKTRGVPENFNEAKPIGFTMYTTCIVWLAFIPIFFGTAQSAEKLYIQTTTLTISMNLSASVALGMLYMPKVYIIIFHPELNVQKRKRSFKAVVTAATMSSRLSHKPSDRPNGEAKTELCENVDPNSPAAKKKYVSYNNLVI
Chain of Metabotropic glutamate receptor 1 (Homo sapiens) (Q13255 19-1194 limits assumed): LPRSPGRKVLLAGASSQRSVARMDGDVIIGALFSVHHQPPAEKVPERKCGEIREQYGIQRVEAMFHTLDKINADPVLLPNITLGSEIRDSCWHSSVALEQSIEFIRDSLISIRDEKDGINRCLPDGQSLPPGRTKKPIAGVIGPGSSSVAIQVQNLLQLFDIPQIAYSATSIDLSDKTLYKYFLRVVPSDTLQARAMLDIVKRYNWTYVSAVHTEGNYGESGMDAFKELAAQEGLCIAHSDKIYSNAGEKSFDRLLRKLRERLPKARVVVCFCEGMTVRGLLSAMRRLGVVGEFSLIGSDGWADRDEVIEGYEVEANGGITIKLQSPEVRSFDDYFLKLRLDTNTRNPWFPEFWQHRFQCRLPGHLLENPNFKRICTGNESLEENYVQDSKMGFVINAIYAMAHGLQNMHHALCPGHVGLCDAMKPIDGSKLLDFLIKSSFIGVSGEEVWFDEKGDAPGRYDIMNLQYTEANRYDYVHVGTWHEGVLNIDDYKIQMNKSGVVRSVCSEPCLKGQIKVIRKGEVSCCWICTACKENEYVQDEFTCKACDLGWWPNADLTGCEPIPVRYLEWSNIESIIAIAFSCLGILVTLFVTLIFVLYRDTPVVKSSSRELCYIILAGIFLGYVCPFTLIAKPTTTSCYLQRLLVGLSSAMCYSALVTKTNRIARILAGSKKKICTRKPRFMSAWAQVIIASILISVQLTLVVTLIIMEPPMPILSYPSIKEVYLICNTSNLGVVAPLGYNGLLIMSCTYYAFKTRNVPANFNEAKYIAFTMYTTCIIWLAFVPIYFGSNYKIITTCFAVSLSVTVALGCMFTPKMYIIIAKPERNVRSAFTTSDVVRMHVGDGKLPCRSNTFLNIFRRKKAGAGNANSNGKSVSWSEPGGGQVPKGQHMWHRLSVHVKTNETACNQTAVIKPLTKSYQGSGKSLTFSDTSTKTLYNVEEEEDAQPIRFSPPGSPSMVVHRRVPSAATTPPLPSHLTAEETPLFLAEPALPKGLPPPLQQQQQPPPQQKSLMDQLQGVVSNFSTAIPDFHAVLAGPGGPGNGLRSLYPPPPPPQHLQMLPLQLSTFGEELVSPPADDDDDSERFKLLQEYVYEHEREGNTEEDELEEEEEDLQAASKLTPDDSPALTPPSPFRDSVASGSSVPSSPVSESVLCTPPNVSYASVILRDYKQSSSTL
Chain of Metabotropic glutamate receptor 8 (Homo sapiens) (O00222 whole entry): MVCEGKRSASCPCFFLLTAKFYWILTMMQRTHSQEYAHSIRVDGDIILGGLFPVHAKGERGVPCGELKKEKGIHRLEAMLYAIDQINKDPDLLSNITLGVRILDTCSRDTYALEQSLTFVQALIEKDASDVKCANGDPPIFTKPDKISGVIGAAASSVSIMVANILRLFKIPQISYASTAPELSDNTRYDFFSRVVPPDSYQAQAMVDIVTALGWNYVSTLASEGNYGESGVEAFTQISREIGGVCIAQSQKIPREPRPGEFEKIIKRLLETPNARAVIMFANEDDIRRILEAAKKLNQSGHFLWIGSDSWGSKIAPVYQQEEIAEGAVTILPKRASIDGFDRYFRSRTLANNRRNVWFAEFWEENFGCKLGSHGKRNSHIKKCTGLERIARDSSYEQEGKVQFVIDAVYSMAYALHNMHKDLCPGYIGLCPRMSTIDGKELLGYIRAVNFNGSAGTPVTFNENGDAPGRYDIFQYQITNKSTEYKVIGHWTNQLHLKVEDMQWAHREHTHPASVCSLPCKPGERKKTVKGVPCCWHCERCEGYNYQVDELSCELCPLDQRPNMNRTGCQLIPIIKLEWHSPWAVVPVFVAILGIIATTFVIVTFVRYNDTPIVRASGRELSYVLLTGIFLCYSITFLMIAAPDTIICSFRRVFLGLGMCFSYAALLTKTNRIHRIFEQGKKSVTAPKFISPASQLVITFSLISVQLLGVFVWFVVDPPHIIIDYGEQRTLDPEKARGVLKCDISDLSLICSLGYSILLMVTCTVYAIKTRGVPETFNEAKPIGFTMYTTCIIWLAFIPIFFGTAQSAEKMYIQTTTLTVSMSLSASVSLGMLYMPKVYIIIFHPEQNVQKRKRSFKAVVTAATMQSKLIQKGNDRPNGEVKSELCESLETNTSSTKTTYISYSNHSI

SMILES: Clc1ccc(Cc2ccnc(-c3ccccn3)n2)cc1
IC50 ([1]; read-out: IC50): > 10 µM

SMILES: Fc1ccc(Sc2ccnc(-c3ccccn3)n2)cc1F
IC50 ([1]; read-out: IC50): 1.52 µM

SMILES: Clc1cccc(Sc2ccnc(-c3ccccn3)n2)c1
IC50 ([1]; read-out: IC50): 0.62 µM

SMILES: Cc1cc(Sc2ccc(Cl)cc2)nc(-c2ccccn2)n1
IC50 ([1]; read-out: IC50): 1.25 µM

SMILES: Clc1ccc(Sc2cccc(-c3ccccn3)n2)cc1Cl
IC50 [1]: Not Active

SMILES: FC(F)(F)c1cccc(Sc2ccnc(-c3ccccn3)n2)c1
IC50 ([1]; read-out: IC50): 0.55 µM

SMILES: Clc1ccc(Sc2ccnc(-c3ccccn3)n2)cc1
IC50 ([1]; read-out: IC50): 0.32 µM

SMILES: Clc1ccc(Oc2ccnc(-c3ccccn3)n2)cc1
IC50 ([1]; read-out: IC50): > 10 µM

SMILES: Cc1cccc(-c2nccc(Sc3ccc(Cl)c(Cl)c3)n2)n1
Activity [2]: > 25 µM
Activity [3]: > 25 µM
Activity [4]: > 25 µM
Activity [5]: > 25 µM
Activity [7]: > 25 µM
IC50 ([1]; read-out: IC50): 0.39 µM
Activity [9]: > 25 µM
Activity [10]: > 25 µM

SMILES: Clc1ccc(Sc2ccnc(-c3ccccn3)n2)cc1Cl
microsomal CLint [6]: 90 µL/min/mg
IC50 ([1]; read-out: IC50): 0.09 µM
microsomal CLint [8]: 120 µL/min/mg

SMILES: Cc1cccc(Sc2ccnc(-c3ccccn3)n2)c1
IC50 ([1]; read-out: IC50): 2.3 µM

SMILES: Clc1ccc(Sc2ccnc(-c3cccnc3)n2)cc1
IC50 ([1]; read-out: IC50): > 10 µM

SMILES: Clc1ccc(Nc2ccnc(-c3ccccn3)n2)cc1
IC50 ([1]; read-out: IC50): > 10 µM

The remaining lines, values ahead:

IC50 ([1]; read-out: IC50): 2.86 µM
SMILES: Brc1cccc(Sc2ccnc(-c3ccccn3)n2)c1

IC50 ([1]; read-out: IC50): 2.37 µM
SMILES: Clc1ccc(Sc2ccnc(-c3ccccn3)c2)cc1Cl

IC50 ([1]; read-out: IC50): > 3 µM
SMILES: OC(c1ccc(Cl)cc1)c1ccnc(-c2ccccn2)n1 (stereo not given)

IC50 ([1]; read-out: IC50): 0.21 µM
SMILES: FC(F)(F)c1ccc(Sc2ccnc(-c3ccccn3)n2)cc1

Activity [2]: > 25 µM
Activity [3]: > 25 µM
Activity [4]: > 25 µM
Activity [5]: > 25 µM
microsomal CLint [6]: 140 µL/min/mg
Activity [7]: > 25 µM
IC50 ([1]; read-out: IC50): 0.08 µM
microsomal CLint [8]: 90 µL/min/mg
Activity [9]: > 25 µM
Activity [10]: > 25 µM
SMILES: Fc1ccc(-c2nccc(Sc3ccc(Cl)c(Cl)c3)n2)nc1

IC50 [1]: Not Active
SMILES: Clc1ccc(-c2ccnc(-c3ccccn3)n2)cc1Cl

IC50 [1]: Not Active
SMILES: Clc1ccc(Sc2nccc(-c3ccccn3)n2)cc1Cl

IC50 ([1]; read-out: IC50): > 10 µM
SMILES: Clc1ccc(Sc2ccnc(-c3ccncc3)n2)cc1

IC50 ([1]; read-out: IC50): > 10 µM
SMILES: CC(=O)N(c1ccc(Cl)cc1)c1ccnc(-c2ccccn2)n1
